In patent US9456992B2 (XSPRAY MICROPARTICLES AB, priority 2012, dated 2016):
Structures can show the parent of a compound that is named as a salt.

Assay: Dissolution measurement assay (apparent solubility, non-sink) in FeSSIF solution (pH 5)
Format: physicochemical
Method: The medium was prepared in accordance with the manufacturer's instructions. The amount of powder added depends on the wished “total PKI concentration”. […] For other experiments, the drug load was first estimated by HPLC and the amount of powder to obtain the drug concentration was calculated.
Typically, the powder was added in a 8 mL glass bottle and 7 mL of solution was added (typically FaSSIF, FeSSIF or SGF). The glass bottle was put on a shaker (approximately 1 rotation per minute) for dissolution. Samples of 500 μl where taken after different times, and subsequently centrifuged at approximately 15000 g for 3 minutes. The resulting supernatant was then analyzed by HPLC (C18 column Eclipse, 4.6 mm×15 cm, 1 mL/min, detection at 254-400 nM. Generally samples were taken after 5, 30 and 90 min and eventually 150 min.
The experiments were carried out by measuring concentration of solubilized PKI (mg/L) after 5, 30 and 90 minutes dissolution in a solution at about pH 6.5, namely FaSSIF (Fasted State Simulated Intestinal Fluid). Further, experiments were carried out in an alternative solution at about pH 5, namely FeSSIF (Fed State Simulated Intestinal Fluid). Samples of the solution were taken at various time intervals and the amount of protein kinase inhibitor was measured by the dissolution measurement assay described above.
The experiments were carried out by measuring concentration of PKI (mg/L) after 5, 30 and 90 minutes dissolution in a solution at about pH 6.5, namely FaSSIF (Fasted State Simulated Intestinal Fluid). Further, experiments were carried out in an alternative solution at about pH 5, namely FeSSIF (Fed State Simulated Intestinal Fluid). Samples of the solution were taken at various time intervals and the amount of PKI was measured by the dissolution measurement assay described above.

% solubilized 30 min. (nilotinib HCl, after 30 minutes dissolution) [%] | % solubilized 30 min. (erlotinib HCl, 30 min dissolution) [%] | AUC/ 90 min. (erlotinib HCl, AUC during 90 min dissolution) [Mg/min/L] | SMILES
0.18 | – | – | Cc1cn(-c2cc(NC(=O)c3ccc(C)c(Nc4nccc(-c5cccnc5)n4)c3)cc(C(F)(F)F)c2)cn1 [Exp 41, Nilotinib HCl]
– | 19.0 | 16303 | C#Cc1cccc(Nc2ncnc3cc(OCCOC)c(OCCOC)cc23)c1 [Exp 69, Erlotinib HCl]
